Legend:
Assay in all cases: relative viability (nuclei count vs DMSO), 5 days (fraction); higher = more cells survive
LXF-289 = tested on: LXF-289
In short: (§1)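 Cells from lung cancer lines were seeded into 1536-well plates and, one day later, dosed by pin tool. Treatments were either a single drug or a fixed dose of an anchor drug with five library-drug doses (not always all listed) in √10 steps. After 5 days, nuclei were stained in a one-step fixation (final 0.05% Triton X-100, 1% formaldehyde, 1 ug/ml Hoechst) and counted on 4× images, and relative viability is the treated-to-vehicle nuclei ratio, as the median of duplicate plates.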

ABC-1 = tested on: ABC-1
In short: as §1

NCI-H1993 = tested on: NCI-H1993
In short: as §1

LK-2 = tested on: LK-2
In short: as §1

NCI-H1792 = tested on: NCI-H1792
In short: as §1

NCI-H2009 = tested on: NCI-H2009
In short: as §1

SK-MES-1 = tested on: SK-MES-1
In short: as §1

SW 900 = tested on: SW 900
In short: as §1

NCI-H2170 = tested on: NCI-H2170
In short: as §1

HARA = tested on: HARA
In short: as §1

SW 1573 = tested on: SW 1573
In short: as §1

NCI-H727 = tested on: NCI-H727
In short: as §1

PC-3 [JPC-3] = tested on: PC-3 [JPC-3]
In short: as §1

NCI-H522 = tested on: NCI-H522
In short: as §1

HOP-62 = tested on: HOP-62
In short: as §1

EMC-BAC-2 = tested on: EMC-BAC-2
In short: as §1

NCI-H322M = tested on: NCI-H322M
In short: as §1

NCI-H1944 = tested on: NCI-H1944
In short: as §1

NCI-H3122 = tested on: NCI-H3122
In short: as §1

NCI-H596 = tested on: NCI-H596
In short: as §1

A-427 = tested on: A-427
In short: as §1

Q: For `Cc1sc2c(c1C)C(c1ccc(Cl)cc1)=N[C@@H](CC(=O)OC(C)(C)C)c1nnc(C)n1-2` [JQ1] + Nc1ncn([C@H]2C[C@H](O)[C@@H](CO)O2)c(=O)n1 [Decitabine] (partner 2 µM), which relative viability (LXF-289; first compound 0.04 µM) is on record?
A: 0.368

Q: And the relative viability (LXF-289; first compound 0.1265 µM)?
A: 0.401

Q: And the relative viability (LXF-289; first compound 0.4 µM)?
A: 0.344

Q: And the relative viability (LXF-289; first compound 1.265 µM)?
A: 0.226

Q: What about the relative viability (LXF-289; first compound 4 µM) of the same compound?
A: 0.222

Q: What about the relative viability (ABC-1; first compound 0.04 µM) of the same compound?
A: 1.19

Q: And the relative viability (ABC-1; first compound 0.1265 µM)?
A: 0.889

Q: What about the relative viability (ABC-1; first compound 0.4 µM) of the same compound?
A: 0.691

Q: And the relative viability (ABC-1; first compound 1.265 µM)?
A: 0.837

Q: And the relative viability (ABC-1; first compound 4 µM)?
A: 0.582

Q: What about the relative viability (NCI-H1993; first compound 0.04 µM) of the same compound?
A: 0.586

Q: And the relative viability (NCI-H1993; first compound 0.1265 µM)?
A: 0.636

Q: What about the relative viability (NCI-H1993; first compound 0.4 µM) of the same compound?
A: 0.553

Q: And the relative viability (NCI-H1993; first compound 1.265 µM)?
A: 0.538

Q: And the relative viability (NCI-H1993; first compound 4 µM)?
A: 0.475

Q: What about the relative viability (LK-2; first compound 0.04 µM) of the same compound?
A: 0.272

Q: What about the relative viability (LK-2; first compound 0.1265 µM) of the same compound?
A: 0.351

Q: What about the relative viability (LK-2; first compound 0.4 µM) of the same compound?
A: 0.27

Q: What about the relative viability (LK-2; first compound 1.265 µM) of the same compound?
A: 0.132

Q: What about the relative viability (LK-2; first compound 4 µM) of the same compound?
A: 0.129

Q: And the relative viability (NCI-H1792; first compound 0.04 µM)?
A: 0.477

Q: What about the relative viability (NCI-H1792; first compound 0.1265 µM) of the same compound?
A: 0.729

Q: And the relative viability (NCI-H1792; first compound 0.4 µM)?
A: 0.525

Q: And the relative viability (NCI-H1792; first compound 1.265 µM)?
A: 0.334

Q: And the relative viability (NCI-H1792; first compound 4 µM)?
A: 0.187

Q: What about the relative viability (NCI-H2009; first compound 0.04 µM) of the same compound?
A: 0.38

Q: And the relative viability (NCI-H2009; first compound 0.1265 µM)?
A: 0.296

Q: And the relative viability (NCI-H2009; first compound 0.4 µM)?
A: 0.354

Q: What about the relative viability (NCI-H2009; first compound 1.265 µM) of the same compound?
A: 0.276

Q: And the relative viability (NCI-H2009; first compound 4 µM)?
A: 0.213

Q: What about the relative viability (SK-MES-1; first compound 0.04 µM) of the same compound?
A: 0.347

Q: And the relative viability (SK-MES-1; first compound 0.1265 µM)?
A: 0.385

Q: What about the relative viability (SK-MES-1; first compound 0.4 µM) of the same compound?
A: 0.315

Q: What about the relative viability (SK-MES-1; first compound 1.265 µM) of the same compound?
A: 0.194

Q: What about the relative viability (SK-MES-1; first compound 4 µM) of the same compound?
A: 0.216

Q: And the relative viability (SW 900; first compound 0.04 µM)?
A: 0.431

Q: What about the relative viability (SW 900; first compound 0.1265 µM) of the same compound?
A: 0.472

Q: And the relative viability (SW 900; first compound 0.4 µM)?
A: 0.426

Q: And the relative viability (SW 900; first compound 1.265 µM)?
A: 0.307

Q: What about the relative viability (SW 900; first compound 4 µM) of the same compound?
A: 0.235

Q: What about the relative viability (NCI-H2170; first compound 0.04 µM) of the same compound?
A: 0.415

Q: And the relative viability (NCI-H2170; first compound 0.1265 µM)?
A: 0.441

Q: And the relative viability (NCI-H2170; first compound 0.4 µM)?
A: 0.473

Q: What about the relative viability (NCI-H2170; first compound 1.265 µM) of the same compound?
A: 0.345

Q: And the relative viability (NCI-H2170; first compound 4 µM)?
A: 0.255

Q: What about the relative viability (HARA; first compound 0.04 µM) of the same compound?
A: 0.617

Q: And the relative viability (HARA; first compound 0.1265 µM)?
A: 0.49

Q: And the relative viability (HARA; first compound 0.4 µM)?
A: 0.457

Q: What about the relative viability (HARA; first compound 1.265 µM) of the same compound?
A: 0.385

Q: What about the relative viability (HARA; first compound 4 µM) of the same compound?
A: 0.249

Q: What about the relative viability (SW 1573; first compound 0.04 µM) of the same compound?
A: 0.366

Q: And the relative viability (SW 1573; first compound 0.1265 µM)?
A: 0.443

Q: What about the relative viability (SW 1573; first compound 0.4 µM) of the same compound?
A: 0.393

Q: And the relative viability (SW 1573; first compound 1.265 µM)?
A: 0.216

Q: What about the relative viability (SW 1573; first compound 4 µM) of the same compound?
A: 0.275

Q: What about the relative viability (NCI-H727; first compound 0.04 µM) of the same compound?
A: 1

Q: And the relative viability (NCI-H727; first compound 0.1265 µM)?
A: 0.877

Q: And the relative viability (NCI-H727; first compound 0.4 µM)?
A: 0.506

Q: What about the relative viability (NCI-H727; first compound 1.265 µM) of the same compound?
A: 0.597

Q: And the relative viability (NCI-H727; first compound 4 µM)?
A: 0.649

Q: And the relative viability (PC-3 [JPC-3]; first compound 0.04 µM)?
A: 0.864

Q: What about the relative viability (PC-3 [JPC-3]; first compound 0.1265 µM) of the same compound?
A: 0.796

Q: And the relative viability (PC-3 [JPC-3]; first compound 0.4 µM)?
A: 0.778

Q: And the relative viability (PC-3 [JPC-3]; first compound 1.265 µM)?
A: 0.509

Q: And the relative viability (PC-3 [JPC-3]; first compound 4 µM)?
A: 0.561

Q: And the relative viability (NCI-H522; first compound 0.04 µM)?
A: 0.656

Q: What about the relative viability (NCI-H522; first compound 0.1265 µM) of the same compound?
A: 0.635

Q: What about the relative viability (NCI-H522; first compound 0.4 µM) of the same compound?
A: 0.661

Q: And the relative viability (NCI-H522; first compound 1.265 µM)?
A: 0.473

Q: What about the relative viability (NCI-H522; first compound 4 µM) of the same compound?
A: 0.501

Q: And the relative viability (HOP-62; first compound 0.04 µM)?
A: 0.238

Q: And the relative viability (HOP-62; first compound 0.1265 µM)?
A: 0.19

Q: And the relative viability (HOP-62; first compound 0.4 µM)?
A: 0.201

Q: What about the relative viability (HOP-62; first compound 1.265 µM) of the same compound?
A: 0.156

Q: What about the relative viability (HOP-62; first compound 4 µM) of the same compound?
A: 0.128

Q: And the relative viability (EMC-BAC-2; first compound 0.04 µM)?
A: 0.947

Q: What about the relative viability (EMC-BAC-2; first compound 0.4 µM) of the same compound?
A: 0.944

Q: What about the relative viability (EMC-BAC-2; first compound 1.265 µM) of the same compound?
A: 0.726

Q: What about the relative viability (EMC-BAC-2; first compound 4 µM) of the same compound?
A: 0.605

Q: What about the relative viability (NCI-H322M; first compound 0.04 µM) of the same compound?
A: 0.631

Q: And the relative viability (NCI-H322M; first compound 0.1265 µM)?
A: 0.886

Q: What about the relative viability (NCI-H322M; first compound 0.4 µM) of the same compound?
A: 0.641

Q: And the relative viability (NCI-H322M; first compound 1.265 µM)?
A: 0.594

Q: What about the relative viability (NCI-H322M; first compound 4 µM) of the same compound?
A: 0.592

Q: And the relative viability (NCI-H1944; first compound 0.04 µM)?
A: 0.438

Q: And the relative viability (NCI-H1944; first compound 0.1265 µM)?
A: 0.405

Q: And the relative viability (NCI-H1944; first compound 0.4 µM)?
A: 0.409

Q: What about the relative viability (NCI-H1944; first compound 1.265 µM) of the same compound?
A: 0.335

Q: And the relative viability (NCI-H1944; first compound 4 µM)?
A: 0.313

Q: What about the relative viability (NCI-H3122; first compound 0.04 µM) of the same compound?
A: 0.489

Q: And the relative viability (NCI-H3122; first compound 0.1265 µM)?
A: 0.395

Q: What about the relative viability (NCI-H3122; first compound 0.4 µM) of the same compound?
A: 0.517

Q: And the relative viability (NCI-H3122; first compound 1.265 µM)?
A: 0.343

Q: And the relative viability (NCI-H3122; first compound 4 µM)?
A: 0.38

Q: And the relative viability (NCI-H596; first compound 0.04 µM)?
A: 1.04

Q: What about the relative viability (NCI-H596; first compound 0.1265 µM) of the same compound?
A: 0.978

Q: What about the relative viability (NCI-H596; first compound 0.4 µM) of the same compound?
A: 0.679

Q: And the relative viability (NCI-H596; first compound 1.265 µM)?
A: 0.611

Q: What about the relative viability (NCI-H596; first compound 4 µM) of the same compound?
A: 0.62

Q: And the relative viability (A-427; first compound 0.04 µM)?
A: 0.57

Q: And the relative viability (A-427; first compound 0.1265 µM)?
A: 0.506

Q: What about the relative viability (A-427; first compound 0.4 µM) of the same compound?
A: 0.591

Q: What about the relative viability (A-427; first compound 1.265 µM) of the same compound?
A: 0.495

Q: What about the relative viability (A-427; first compound 4 µM) of the same compound?
A: 0.478

Reference: the supplement of paper PMC10307832
